Laboratory results published in patent US20250076320A1, “METHOD AND PROGRAM FOR DETECTING ADMINISTERED DRUG, AND DEVICE THEREFOR” (A&T CORPORATION, priority 2023, published 2025).

Tested on: prothrombin time (blood coagulation, extrinsic pathway)
Test: Clot waveform analysis with dry PT reagent containing magnetic particles on the CG02N blood coagulation analyzer
Conditions: samples receiving administration of rivaroxaban, PT-INR 2.0 or higher (22 samples); inclination from maximal movement level of magnetic particles to 5% attenuation; 25 μl sample; samples not receiving DOAC: −1219.8
Description: When measurement is initiated, apparatus CG02N turns electromagnets at the bottom of the reaction cell on and off, and allows magnetic particles to move in the reaction cell. CG02N observes the movement of the magnetic particles as the amount of change in the scattered light, and analyzes the change with the elapse of time to determine clotting time. When the CG02N analyzer is used, the change in the movement signal of the magnetic particles over time is inversely correlated to the change in the viscosity of the dry reagent. As the clotting reaction advances, the viscosity in the reaction cell increases, and the movement of the magnetic particles becomes slower. The clot waveform is analyzed by determining a difference between the waveform value (scattered light) after a given period of time from the point when an electromagnet is turned on and the waveform value (scattered light) after a given period of time from the point when electromagnet is turned off. Differences in the waveform values are plotted with the elapse of time, and a point at which the waveform value is lowered by a given percentage from the maximal value (also referred to as “peak TOP”) is designated as the end point. The period from the peak TOP to the end point is measured to obtain the measured value (seconds). The term “clotting time” used herein refers to the period from the peak TOP to the end point. […]

## O=C(NC[C@H]1CN(c2ccc(N3CCOCC3=O)cc2)C(=O)O1)c1ccc(Cl)s1 [rivaroxaban]
  Slope of clot waveform, Mean: −805.9
